Results published in ChEMBL document CHEMBL3120164, “1,2,3,4-Tetrahydrobenzo[h][1,6]naphthyridines as a new family of potent peripheral-to-midgorge-site inhibitors of acetylcholinesterase: synthesis, pharmacological evaluation and mechanistic studies” (Eur J Med Chem, 2014).

Target: T1, Acetylcholinesterase (Homo sapiens, UniProt P22303)
T1 sequence (P22303 whole entry): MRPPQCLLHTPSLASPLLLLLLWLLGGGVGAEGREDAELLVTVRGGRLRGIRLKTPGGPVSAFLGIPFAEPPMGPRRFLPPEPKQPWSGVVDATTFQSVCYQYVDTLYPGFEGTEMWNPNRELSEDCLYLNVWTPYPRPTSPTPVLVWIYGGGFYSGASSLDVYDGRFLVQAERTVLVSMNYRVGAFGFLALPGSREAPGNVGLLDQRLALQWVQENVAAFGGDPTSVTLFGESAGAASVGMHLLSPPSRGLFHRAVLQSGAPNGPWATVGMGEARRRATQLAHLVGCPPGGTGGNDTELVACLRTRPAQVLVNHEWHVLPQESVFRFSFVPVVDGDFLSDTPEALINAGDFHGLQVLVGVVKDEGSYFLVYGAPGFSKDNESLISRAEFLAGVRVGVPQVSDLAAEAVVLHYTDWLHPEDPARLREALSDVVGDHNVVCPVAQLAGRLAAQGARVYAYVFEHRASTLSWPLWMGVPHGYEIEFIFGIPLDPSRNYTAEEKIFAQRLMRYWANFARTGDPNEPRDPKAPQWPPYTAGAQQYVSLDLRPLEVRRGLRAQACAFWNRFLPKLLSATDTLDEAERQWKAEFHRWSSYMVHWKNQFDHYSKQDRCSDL
Assay: Inhibition of human recombinant AChE using acetylthiocholine iodide as substrate preincubated for 20 mins followed by substrate addition by Ellman's method
Conditions: not given
Work on `CCOC(=O)c1ccc2nc(-c3ccc(Cl)cc3)c3c(c2c1)N(Cc1ccccc1)CCC3` yielded an IC50 greater than 25 µM.
For `CCOC(=O)c1ccc2nc(-c3ccc(Cl)cc3)c3c(c2c1)NCCC3`, the IC50 was greater than 25 µM.
For `CCNCc1ccc2nc(-c3ccc(Cl)cc3)c3c(c2c1)N(Cc1ccccc1)CCC3`, the IC50 was 0.942 µM.
Compound `CCOC(=O)c1ccc2nc(-c3cccnc3)c3c(c2c1)N(Cc1ccccc1)CCC3` has an IC50 of 1.06 µM.
Compound `CCOC(=O)c1ccc2nc(-c3ccc(C(=O)OC)cc3)c3c(c2c1)N(Cc1ccccc1)C(=O)CC3` has an IC50 greater than 25 µM.
`CCOC(=O)c1ccc2nc(-c3cccnc3)c3c(c2c1)N(Cc1ccccc1)C(=O)CC3` showed an IC50 of 13 µM.

Target: T2, Acetylcholinesterase (Electrophorus electricus, UniProt O42275)
T2 sequence (O42275 whole entry): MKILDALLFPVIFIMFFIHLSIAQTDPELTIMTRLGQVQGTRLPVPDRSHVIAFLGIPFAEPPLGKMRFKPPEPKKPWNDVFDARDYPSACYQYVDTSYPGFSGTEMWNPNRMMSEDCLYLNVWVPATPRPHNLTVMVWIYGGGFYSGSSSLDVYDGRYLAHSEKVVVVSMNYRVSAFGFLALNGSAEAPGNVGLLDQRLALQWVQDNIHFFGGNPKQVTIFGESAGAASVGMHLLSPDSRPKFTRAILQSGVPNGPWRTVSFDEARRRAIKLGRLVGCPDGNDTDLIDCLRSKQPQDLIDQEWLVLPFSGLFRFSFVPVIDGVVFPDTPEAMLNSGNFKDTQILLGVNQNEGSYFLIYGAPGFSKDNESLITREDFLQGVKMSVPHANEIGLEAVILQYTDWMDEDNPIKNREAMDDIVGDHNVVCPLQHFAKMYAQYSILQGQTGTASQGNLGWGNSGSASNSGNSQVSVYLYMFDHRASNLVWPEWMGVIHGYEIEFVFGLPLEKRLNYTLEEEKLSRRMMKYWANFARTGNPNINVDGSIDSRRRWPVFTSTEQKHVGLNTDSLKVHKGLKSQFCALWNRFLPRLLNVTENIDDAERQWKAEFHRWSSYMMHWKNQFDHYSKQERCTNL
Assay: not given
Conditions: not given
`CCOC(=O)c1ccc2nc(-c3ccc(Cl)cc3)c3c(c2c1)N(Cc1ccccc1)CCC3` showed an IC50 of 6.33 µM.
With `CCOC(=O)c1ccc2nc(-c3ccc(Cl)cc3)c3c(c2c1)NCCC3` the IC50 was 0.281 µM.
For `CCNCc1ccc2nc(-c3ccc(Cl)cc3)c3c(c2c1)N(Cc1ccccc1)CCC3`, the IC50 was 0.147 µM.
`CCOC(=O)c1ccc2nc(-c3cccnc3)c3c(c2c1)N(Cc1ccccc1)CCC3` showed an IC50 of 1.97 µM.
`CCOC(=O)c1ccc2nc(-c3ccc(C(=O)OC)cc3)c3c(c2c1)N(Cc1ccccc1)C(=O)CC3` gave an IC50 of 13.6 µM.
In the case of `CCOC(=O)c1ccc2nc(-c3cccnc3)c3c(c2c1)N(Cc1ccccc1)C(=O)CC3`, the IC50 is reported as greater than 30 µM.

Target: T1, Acetylcholinesterase
Assay: Inhibition of human recombinant AChE using acetylthiocholine iodide as substrate at 25 uM preincubated for 20 mins followed by substrate addition by Ellman's method relative to control
Conditions: not given
`CCOC(=O)c1ccc2nc(-c3ccc(Cl)cc3)c3c(c2c1)N(Cc1ccccc1)CCC3` showed an inhibition of 10%.
In the case of `CCOC(=O)c1ccc2nc(-c3ccc(Cl)cc3)c3c(c2c1)NCCC3`, the inhibition is reported as 17.8%.
For `CCOC(=O)c1ccc2nc(-c3ccc(C(=O)OC)cc3)c3c(c2c1)N(Cc1ccccc1)C(=O)CC3`, the inhibition was 13.8%.

Target: Acetylcholinesterase (Electrophorus electricus) (UniProt O42275)
Sequence (O42275 24-633 limits assumed): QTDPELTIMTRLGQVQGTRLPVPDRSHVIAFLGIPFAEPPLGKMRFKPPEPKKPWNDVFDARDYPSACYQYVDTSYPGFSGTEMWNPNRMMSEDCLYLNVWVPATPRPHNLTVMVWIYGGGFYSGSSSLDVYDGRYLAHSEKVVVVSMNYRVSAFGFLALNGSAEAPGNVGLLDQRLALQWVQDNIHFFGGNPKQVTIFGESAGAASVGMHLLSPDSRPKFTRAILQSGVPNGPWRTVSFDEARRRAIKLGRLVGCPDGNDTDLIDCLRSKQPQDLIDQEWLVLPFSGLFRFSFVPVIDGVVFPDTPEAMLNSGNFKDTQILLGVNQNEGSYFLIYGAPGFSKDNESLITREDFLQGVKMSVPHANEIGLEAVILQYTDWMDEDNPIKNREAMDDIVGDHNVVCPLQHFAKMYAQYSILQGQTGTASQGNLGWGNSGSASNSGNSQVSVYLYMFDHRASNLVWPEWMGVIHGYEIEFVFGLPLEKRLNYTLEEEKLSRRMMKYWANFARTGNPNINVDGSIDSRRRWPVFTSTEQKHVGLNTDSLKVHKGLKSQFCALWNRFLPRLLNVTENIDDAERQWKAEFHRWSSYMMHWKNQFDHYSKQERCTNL
Assay: Binding affinity to electric eel AChE peripheral anionic site assessed as concentration required for decreasing initial fluorescence intensity of AChE-propidium complex by spectrofluorometric analysis
Conditions: not given
`CCNCc1ccc2nc(-c3ccc(Cl)cc3)c3c(c2c1)N(Cc1ccccc1)CCC3` showed an Activity of 33 µM.

Target: Amyloid-beta precursor protein (Homo sapiens) (UniProt P05067)
Sequence (P05067 whole entry): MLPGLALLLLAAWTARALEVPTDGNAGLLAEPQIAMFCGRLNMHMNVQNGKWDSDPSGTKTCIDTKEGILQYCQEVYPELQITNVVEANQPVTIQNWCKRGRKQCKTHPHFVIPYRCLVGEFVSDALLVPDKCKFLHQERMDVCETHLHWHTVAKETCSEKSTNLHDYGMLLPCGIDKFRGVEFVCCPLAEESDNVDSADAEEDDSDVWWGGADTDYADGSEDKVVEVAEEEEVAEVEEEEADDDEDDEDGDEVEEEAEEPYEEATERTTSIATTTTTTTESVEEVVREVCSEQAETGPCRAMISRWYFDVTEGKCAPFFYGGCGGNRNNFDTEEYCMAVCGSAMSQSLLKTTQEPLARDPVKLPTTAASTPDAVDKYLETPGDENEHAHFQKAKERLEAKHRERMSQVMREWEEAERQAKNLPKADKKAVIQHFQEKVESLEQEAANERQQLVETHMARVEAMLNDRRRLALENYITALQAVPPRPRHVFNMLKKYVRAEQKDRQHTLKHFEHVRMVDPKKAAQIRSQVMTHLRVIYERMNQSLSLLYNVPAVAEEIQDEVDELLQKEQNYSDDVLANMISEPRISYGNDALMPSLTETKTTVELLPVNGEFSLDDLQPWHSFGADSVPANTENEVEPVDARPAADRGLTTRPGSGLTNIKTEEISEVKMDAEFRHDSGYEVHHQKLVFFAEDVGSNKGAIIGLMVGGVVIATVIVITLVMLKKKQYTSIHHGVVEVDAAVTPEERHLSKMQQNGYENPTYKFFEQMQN
Assay: Inhibition of amyloid beta (1 to 42) aggregation (unknown origin) at 10 uM relative to control
Conditions: not given
With `CCOC(=O)c1ccc2nc(-c3ccc(Cl)cc3)c3c(c2c1)N(Cc1ccccc1)CCC3` the inhibition was less than 16%.
Work on `CCOC(=O)c1ccc2nc(-c3ccc(Cl)cc3)c3c(c2c1)NCCC3` yielded an inhibition of less than 16%.
In the case of `CCNCc1ccc2nc(-c3ccc(Cl)cc3)c3c(c2c1)N(Cc1ccccc1)CCC3`, the inhibition is reported as less than 16%.
`CCOC(=O)c1ccc2nc(-c3cccnc3)c3c(c2c1)N(Cc1ccccc1)CCC3` gave an inhibition of less than 16%.
`CCOC(=O)c1ccc2nc(-c3ccc(C(=O)OC)cc3)c3c(c2c1)N(Cc1ccccc1)C(=O)CC3` gave an inhibition of less than 16%.
`CCOC(=O)c1ccc2nc(-c3cccnc3)c3c(c2c1)N(Cc1ccccc1)C(=O)CC3` showed an inhibition of less than 16%.

Target: T2, Acetylcholinesterase
Assay: (§1) Displacement of propidium from electric eel AChE peripheral anionic site assessed as decrease in fluorescence intensity by spectrofluorometric analysis
Conditions: not given
In the case of `CCNCc1ccc2nc(-c3ccc(Cl)cc3)c3c(c2c1)N(Cc1ccccc1)CCC3`, the Kd is reported as 3.2 µM.

Target: Acetylcholinesterase (Electrophorus electricus) (UniProt O42275)
Assay: as §1
Conditions: not given
In the case of `CCNCc1ccc2nc(-c3ccc(Cl)cc3)c3c(c2c1)N(Cc1ccccc1)CCC3`, the inhibition is reported as “Dose-dependent effect”.

Target: Cholinesterase (Homo sapiens, UniProt P06276)
Sequence (P06276 whole entry): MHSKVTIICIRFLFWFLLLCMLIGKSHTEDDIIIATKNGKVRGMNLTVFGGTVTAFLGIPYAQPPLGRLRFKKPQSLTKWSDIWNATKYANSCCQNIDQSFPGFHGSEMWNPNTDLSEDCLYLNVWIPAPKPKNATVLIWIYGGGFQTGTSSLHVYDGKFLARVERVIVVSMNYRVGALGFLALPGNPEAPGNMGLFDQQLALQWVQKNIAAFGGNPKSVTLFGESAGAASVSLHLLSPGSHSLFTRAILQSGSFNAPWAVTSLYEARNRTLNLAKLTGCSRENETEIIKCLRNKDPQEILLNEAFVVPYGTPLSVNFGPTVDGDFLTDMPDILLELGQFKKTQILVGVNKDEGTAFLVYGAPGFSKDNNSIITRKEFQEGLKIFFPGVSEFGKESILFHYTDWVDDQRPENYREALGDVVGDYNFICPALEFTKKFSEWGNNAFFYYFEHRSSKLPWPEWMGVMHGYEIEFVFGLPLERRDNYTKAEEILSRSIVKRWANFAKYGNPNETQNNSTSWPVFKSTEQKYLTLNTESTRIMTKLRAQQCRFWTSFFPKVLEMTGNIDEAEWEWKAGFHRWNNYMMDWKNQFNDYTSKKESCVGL
Assay: Inhibition of human serum BChE using butyrylthiocholine iodide as substrate at 30 uM preincubated for 20 mins followed by substrate addition measured after 5 mins by Ellman's method relative to control
Conditions: not given
Work on `CCOC(=O)c1ccc2nc(-c3ccc(Cl)cc3)c3c(c2c1)N(Cc1ccccc1)CCC3` yielded an inhibition of 8.68%.
In the case of `CCOC(=O)c1ccc2nc(-c3ccc(Cl)cc3)c3c(c2c1)NCCC3`, the inhibition is reported as 20.3%.
Work on `CCOC(=O)c1ccc2nc(-c3ccc(C(=O)OC)cc3)c3c(c2c1)N(Cc1ccccc1)C(=O)CC3` yielded an inhibition of 5.54%.
Compound `CCOC(=O)c1ccc2nc(-c3cccnc3)c3c(c2c1)N(Cc1ccccc1)C(=O)CC3` has an inhibition of 4.42%.

System: not listed separately
Assay: in vitro
Conditions: PAMPA
Description: Permeability of the compound by BBB-PAMPA
For `CN1C(C(=O)Nc2ccccn2)=C(O)c2ccccc2S1(=O)=O` [PIROXICAM], the Papp was 17.1 nm/s.
For `CCOC(=O)c1ccc2nc(-c3ccc(Cl)cc3)c3c(c2c1)N(Cc1ccccc1)CCC3`, the Papp was 81 nm/s.
For `CCOC(=O)c1ccc2nc(-c3ccc(Cl)cc3)c3c(c2c1)NCCC3`, the Papp was 97 nm/s.
`CCn1cc(C(=O)O)c(=O)c2cc(F)c(N3CCNC(C)C3)c(F)c21` (stereo not given) [LOMEFLOXACIN] showed a Papp of 7.5 nm/s.
Work on `CCOC(=O)c1ccc2nc(-c3ccc(C(=O)OC)cc3)c3c(c2c1)N(Cc1ccccc1)C(=O)CC3` yielded a Papp of 168 nm/s.
In the case of `CCOC(=O)c1ccc2nc(-c3cccnc3)c3c(c2c1)N(Cc1ccccc1)C(=O)CC3`, the Papp is reported as 122 nm/s.

Target: Acetylcholinesterase (Electrophorus electricus) (UniProt O42275)
Assay: Inhibition of electric eel AChE using acetylthiocholine iodide as substrate at 30 uM preincubated for 20 mins followed by substrate addition measured after 5 mins by Ellman's method relative to control
Conditions: not given
`CCOC(=O)c1ccc2nc(-c3cccnc3)c3c(c2c1)N(Cc1ccccc1)C(=O)CC3` showed an inhibition of 43.7%.
